According to patent US20020090352A1, “Compositions and methods for use in modulating immune system function” (priority 2000, published 2002):
Entries after “also recorded” stand apart in the source; their conditions may differ. Marks after values point to notes of the source that are not given here.

Tests used:
[1] = system: immature LC (Langerhans cells); assay: Apoptosis of immature LC, flow cytometry of PI stained nuclei (sub 2N particles) / annexin V; format: cell-based, human; details: for induction of apoptosis / death of immature LC by the substance on its own: no TNFα
[2] = system: immature LC (Langerhans cells); assay: Activation of immature LC: HLA-DR and CD86 expression by flow cytometry; format: cell-based, human; design: class II or CD86 upregulation on immature LC: dose or concentration left out as unconfirmed; details: for activation of immature LC (class II / CD86, DRhi-CD86hi) in the presence of TNFα: TNFα 1-10 ng/ml; for class II or CD86 upregulation on immature LC: in the absence or at low concentrations of TNFα
Experimental: Immature LC were cultured with retinol or vehicle and/or TNFα for 40 h. Cells were washed and incubated with HLA-DR-FITC and CD86-PE or isotype controls for 15 min at 4° C. 10^4 events were then analyzed with a FACScalibur (Becton Dickinson) using CellQuest software (Becton Dickinson). % are given for DRhi CD86hi cells gated as indicated. Data are representative of three experiments on different donors.
FIG. 3A: Day 6 immature LC were cultured for 40 h with TNFα and/or retinoids or vehicle as indicated. Cells were washed and stained with HLA-DR-FITC and CD86-PE or isotype controls for 15 min at 4° C. 10^4 events were then analyzed with a FACScalibur (Becton Dickinson) using CellQuest software (Becton Dickinson). Data are given for DRhi/CD86 hi cells gated as indicated, and are representative of 10 experiments on different donors.
Percentages of DRhi/CD86 hi cells are represented and results are expressed as the mean±SD of at last three experiments on different donors.
Flow Cytometry Analysis. 1×10^5 cells were incubated in 96-well plates (Becton Dickinson Labware, Franklin Lakes, N.J.) for 15 min at 4 ° C. in PBS, 2% human AB serum, and 0.01 M NaN3, with FITC-conjugated anti-DR (Immunotech, Marseille, France) and PE-conjugated CD86 (Pharmingen, San Diego, Calif.) at the appropriate concentration, or with control isotype-matched irrelevant mAbs at the same concentration. After washing, 10^4 events were analyzed with a FACScalibur (Becton Dickinson Immunocytometry Systems, Mountain View, Calif.) using CellQuest software.

T-cells stimulated by LC = format: cell-based, human
RARα AF2 = biological target: T1, RARα AF2 (Homo sapiens, UniProt P10276); details: retinoid activity, reporter cells; cited from earlier work; further: key: '+' = agonist; '(+)' = weak agonist; '−' = antagonist; '0' = absence of agonist and antagonist activities
T1 construct: expressed in transfected cells
T1 sequence (P10276 183-417 limits assumed): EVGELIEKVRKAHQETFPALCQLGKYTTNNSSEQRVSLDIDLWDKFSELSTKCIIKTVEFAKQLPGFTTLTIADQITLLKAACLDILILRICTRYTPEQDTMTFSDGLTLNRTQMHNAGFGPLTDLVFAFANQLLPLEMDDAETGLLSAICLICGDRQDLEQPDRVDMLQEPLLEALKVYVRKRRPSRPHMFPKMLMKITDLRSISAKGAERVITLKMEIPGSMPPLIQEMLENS

RARβ AF2 = biological target: T2, RARβ AF2 (Homo sapiens, UniProt P10826); details: retinoid activity, reporter cells; cited from earlier work; further: key: '+' = agonist; '(+)' = weak agonist; '−' = antagonist; '0' = absence of agonist and antagonist activities
T2 construct: expressed in transfected cells
T2 sequence (P10826 183-417 limits assumed): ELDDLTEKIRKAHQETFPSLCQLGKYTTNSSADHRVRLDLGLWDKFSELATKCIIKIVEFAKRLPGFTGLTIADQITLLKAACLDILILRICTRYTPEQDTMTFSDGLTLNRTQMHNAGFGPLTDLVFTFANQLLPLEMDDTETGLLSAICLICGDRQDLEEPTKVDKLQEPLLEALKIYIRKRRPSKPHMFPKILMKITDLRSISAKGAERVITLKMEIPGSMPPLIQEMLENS

RARγ AF2 = biological target: T3, RARγ AF2 (Homo sapiens, UniProt P13631); details: retinoid activity, reporter cells; cited from earlier work; further: key: '+' = agonist; '(+)' = weak agonist; '−' = antagonist; '0' = absence of agonist and antagonist activities
T3 construct: expressed in transfected cells
T3 sequence (P13631 185-419 limits assumed): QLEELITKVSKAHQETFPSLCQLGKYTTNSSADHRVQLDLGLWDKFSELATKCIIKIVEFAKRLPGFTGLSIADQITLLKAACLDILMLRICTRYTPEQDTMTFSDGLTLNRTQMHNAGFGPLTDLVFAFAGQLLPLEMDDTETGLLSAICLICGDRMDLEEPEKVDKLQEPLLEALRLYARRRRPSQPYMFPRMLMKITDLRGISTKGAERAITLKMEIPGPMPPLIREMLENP

RXR AF2 = details: retinoid activity, reporter cells; cited from earlier work
RXRα homodimer [(RXR)2] = biological target: T4, RXRα homodimer [(RXR)2] (Homo sapiens, UniProt P19793); details: retinoid activity, transient transfection; cited from earlier work; further: key: '+' = agonist; '(+)' = weak agonist; '−' = antagonist; '0' = absence of agonist and antagonist activities
T4 construct: expressed in transfected cells
T4 sequence (P19793 1-462): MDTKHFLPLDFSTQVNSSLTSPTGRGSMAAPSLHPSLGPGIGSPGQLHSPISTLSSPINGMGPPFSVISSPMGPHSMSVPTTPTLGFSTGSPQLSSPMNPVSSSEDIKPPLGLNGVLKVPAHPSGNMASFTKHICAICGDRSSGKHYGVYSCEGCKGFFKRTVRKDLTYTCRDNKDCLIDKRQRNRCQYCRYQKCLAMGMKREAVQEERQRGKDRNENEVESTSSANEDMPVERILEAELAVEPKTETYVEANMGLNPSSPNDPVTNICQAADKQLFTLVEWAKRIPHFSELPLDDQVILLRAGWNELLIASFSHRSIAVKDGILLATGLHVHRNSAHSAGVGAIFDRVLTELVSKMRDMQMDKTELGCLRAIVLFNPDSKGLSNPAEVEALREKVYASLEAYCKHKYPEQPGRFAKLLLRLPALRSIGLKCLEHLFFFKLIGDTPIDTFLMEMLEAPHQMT

RARα-RXRα heterodimer = biological target: T5, RARα-RXRα heterodimer (Homo sapiens, UniProt P10276+P19793); details: retinoid activity, transient transfection; cited from earlier work
T5 construct: expressed in transfected cells
T5 sequence (P10276 1-462): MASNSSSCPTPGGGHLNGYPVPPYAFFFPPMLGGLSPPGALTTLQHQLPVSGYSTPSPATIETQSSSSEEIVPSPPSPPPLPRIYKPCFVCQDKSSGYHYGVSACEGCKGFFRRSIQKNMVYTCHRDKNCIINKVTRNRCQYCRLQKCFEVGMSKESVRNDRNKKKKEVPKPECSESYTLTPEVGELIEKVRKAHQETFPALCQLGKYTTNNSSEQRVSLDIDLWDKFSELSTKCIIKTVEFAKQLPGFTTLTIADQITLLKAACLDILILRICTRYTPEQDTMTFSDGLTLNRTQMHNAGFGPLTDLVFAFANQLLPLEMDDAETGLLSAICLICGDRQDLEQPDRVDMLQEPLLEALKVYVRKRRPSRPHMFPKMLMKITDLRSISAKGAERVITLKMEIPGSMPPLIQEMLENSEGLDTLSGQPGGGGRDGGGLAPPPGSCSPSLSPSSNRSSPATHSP
T5 sequence (P19793 1-462): T4 sequence (P19793 1-462)

in vitro = details: human
NF-κB complexes = assay: Electrophoretic mobility shift assay of nuclear NF-κB complexes in immature LC; format: cell-based, human; details: retinoid 1 μM 6 h, then TNFα 50 ng/ml 30 min; result in words
[3] = 1 nM, two days in culture, mean ± SD
[4] = 10 nM, two days in culture, mean ± SD
[5] = 100 nM, two days in culture, mean ± SD
[6] = 1 μM, two days in culture, mean ± SD
[7] = Table 3C, retinoid 1 μM in medium, no inhibitor

Structure (SMILES)	percentage of apoptotic (<2N) particles [1, 3]	percentage of apoptotic (<2N) particles [1, 4]	percentage of apoptotic (<2N) particles ([1]; 100 nM SR11237 + 1 nM ligand)	percentage of apoptotic (<2N) particles ([1]; 100 nM SR11237 + 10 nM ligand)	percentage of apoptotic (<2N) particles ([1]; 100 nM SR11237 + 100 nM ligand)	percentage of apoptotic (<2N) particles ([1]; 100 nM SR11237 + 1 μM ligand)	percentage of apoptotic (<2N) particles [1, 5]	percentage of apoptotic (<2N) particles [1, 6]	induction of apoptosis / death of immature LC by the substance on its own ([1]; result in words)	enhancement of antigen presentation to antigen-specific T-cells in synergy with TNFα (T-cells stimulated by LC)	RARα AF2 (RARα AF2)	RARβ AF2 (RARβ AF2)	RARγ AF2 (RARγ AF2)	RXR AF2 (RXR AF2)	(RXR)2 AF2 (RXRα homodimer [(RXR)2])	RARα-RXR DR5 (RARα-RXRα heterodimer)	percentage of apoptotic (<2N) particles [1, 7]	class II or CD86 upregulation on immature LC [2]	activation of immature LC (class II / CD86, DRhi-CD86hi) in the presence of TNFα ([2]; result in words)	nuclear translocation / DNA-binding activity of NF-κB complexes with TNFα (NF-κB complexes)	further results
CC1(C)CC=C(c2cnc3ccccc3c2)c2cc(C(=O)Nc3ccc(C(=O)O)cc3)ccc21 [Compound II, 4-[[[5,6-Dihydro-5,5-dimethyl-8-(3-quinolinyl)-2-naphthalenyl]carbonyl]amino]benzoic acid]	≦5%	≦5%	≦5%	≦5%	≦5%	≦5%	≦5%	≦5%	did not induce	synergized with the RXR agonist (SR11237)	−^(a)(b)	0	0	0	0	−					inhibition of retinoid-induced apoptosis / cell death of immature LC ([1]; result in words): inhibited retinoid-induced apoptosis; inhibition of retinoid-induced apoptosis / cell death of immature LC ([1]; result in words, listed as Compound H): inhibited; synergy with the RXR agonist SR11237 for TNFα-induced LC activation ([2]; result in words): synergized with the RXR agonist (SR11237)
CC1=C(/C=C/C(C)=C/C=C/C(C)=C/CO)C(C)(C)CCC1 [Rol, retinol]	≦5^(a) %	≦5%					≦5%	17±8%	increased								17 ± 8%	did not significantly induce			minimum effective dose for significant LC activation [2]: 1 µM; synergy with IL-1β to activate LC ([2]; IL-1β 1-10 ng/ml, result in words): synergized with IL-1β; activation of immature LC (class II / CD86, DRhi-CD86hi) in the presence of TNFα ([2]; result in words, listed as Retinol): synergize with TNFα; also recorded: upregulate; activation of immature LC (class II / CD86, DRhi-CD86hi) in the presence of TNFα ([2]; result in words, listed as retinol): synergized with TNFα; allogeneic T-lymphocyte proliferation (MLR) (T-cells stimulated by LC): increase alloreactive proliferative response; cytotoxicity at 2 days, 1 μM (in vitro): 20%; cytotoxicity at 3 days, 1 μM (in vitro): 40%
CC1(C)CCC(C)(C)c2cc(C3(c4ccc(C(=O)O)cc4)OCCO3)ccc21 [SR11237, 4-[2-(5,6,7,8-tetrahydro-5,5,8,8-tetramethyl-2-naphthalenyl)-1,3-dioxolan-2-yl]benzoic acid, reference compound]	≦5%	≦5%					≦5%	≦5%	neither SR11237 (Table 3) nor BMS749 exhibited an apoptotic effect	synergized with TNFα	0	0	0	+	+	0			also synergized with TNFα; also recorded: upregulate	synergize with TNFα	induction of apoptosis / death of immature LC by the substance on its own ([1]; result in words, listed as SR1 1237): had no effects on its own; synergy with the pan-RXR agonist SR11237 to induce LC death ([1]; result in words): asynergistic effect on LC death induced by the selective RARα agonist
CC1(C)C(=O)C(C)(C)c2cc(C(=O)Nc3ccc(C(=O)O)cc3)ccc21 [Compound I, 4-[[(2,3-Dihydro-1,1,3,3-tetramethyl-2-oxo-1H-inden-5-yl)carbonyl]amino]benzoic acid]	≦5%	≦5%	6 ± 3%	25 ± 10^(a) %	32 ± 7%	47 ± 10%	27 ± 9%	37 ± 7%	apoptosis was induced		+	0	0	0	0	+	38 ± 8%		upregulate	synergize with TNFα	percentage of apoptotic (<2N) particles ([1]; 50 nM, two days in culture, mean ± SD): 18 ± 3^(b) %; percentage of apoptotic (<2N) particles ([1]; Table 3C, Compound I 100 nM + SR11237 100 nM in medium, no inhibitor): 38 ± 5%
CC1=C(/C=C/C(C)=C/C=C/C(C)=C/C(=O)O)C(C)(C)CCC1 [tRA, all-trans retinoic acid, reference compound]	≦5%	≦5%					14 ± 6^(b) %	36 ± 10%	induced a similar dose- and time-dependent increase in death		+^(a)	+	+	0^(a)			38 ± 10%	did not significantly induce	synergize with TNFα; also recorded: upregulate	synergize with TNFα	
